# Source: PubChem BioAssay AID1919003 (Molecular Pharmacology Branch, DTP, NCI, 2023)
# System: 786-0 complex spheroids with HUVEC/MSC, growth % test/control
# Experiment: Anticancer human tumor 786-0 cell line growth inhibition [AhR];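 further: compound exposure lasted seven days before the read-out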
# Conditions: for IC50: curve of first compound; for viability, T/C: stronger effect = lower value
# In short: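 Agents were dosed in half-log steps down from roughly clinical Cmax, or from 10 microM where Cmax was unknown, alone and with AhR antagonists. Read-out: percent test/control growth of tumor spheroids containing HUVEC and MSC stromal cells.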
# [1] = second compound 0.1 µM, first compound 0.0316 µM
# [2] = second compound 0.1 µM, first compound 0.1 µM
# [3] = second compound 0.316 µM, first compound 0.0316 µM
# [4] = second compound 0.316 µM, first compound 0.1 µM
# [5] = second compound 1 µM, first compound 0.0316 µM
# [6] = second compound 1 µM, first compound 0.1 µM
# [7] = second compound 3.16 µM, first compound 0.0316 µM
# [8] = second compound 3.16 µM, first compound 0.1 µM
# [9] = second compound 10 µM, first compound 0.0316 µM
# [10] = second compound 10 µM, first compound 0.1 µM
# [11] = second compound 0.1 µM, first compound 0.316 µM
# [12] = second compound 0.1 µM, first compound 1 µM
# [13] = second compound 0.1 µM, first compound 3.16 µM
# [14] = second compound 0.1 µM, first compound 10 µM
# [15] = second compound 0.316 µM, first compound 0.316 µM
# [16] = second compound 0.316 µM, first compound 1 µM
# [17] = second compound 0.316 µM, first compound 3.16 µM
# [18] = second compound 0.316 µM, first compound 10 µM
# [19] = second compound 1 µM, first compound 0.316 µM
# [20] = second compound 1 µM, first compound 1 µM
# [21] = second compound 1 µM, first compound 3.16 µM
# [22] = second compound 1 µM, first compound 10 µM
# [23] = second compound 3.16 µM, first compound 0.316 µM
# [24] = second compound 3.16 µM, first compound 1 µM
# [25] = second compound 3.16 µM, first compound 3.16 µM
# [26] = second compound 3.16 µM, first compound 10 µM
# [27] = second compound 10 µM, first compound 0.316 µM
# [28] = second compound 10 µM, first compound 1 µM
# [29] = second compound 10 µM, first compound 3.16 µM
# [30] = second compound 10 µM, first compound 10 µM
smiles,measurement,setting,value
CC[C@@]1(O)C(=O)OCc2c1cc1n(c2=O)Cc2cc3c(CN(C)C)c(O)ccc3nc2-1 + Cc1ccccc1N=Nc1ccc(NC(=O)c2ccnn2C)c(C)c1,IC50,second compound 0.1 µM,48.5 nM
same,IC50,second compound 0.316 µM,41 nM
same,IC50,second compound 1 µM,38.8 nM
same,IC50,second compound 3.16 µM,30.9 nM
same,IC50,second compound 10 µM,27 nM
same,"viability, T/C","second compound 0.1 µM, first compound 0.000316 µM",107%
same,"viability, T/C","second compound 0.1 µM, first compound 0.001 µM",103%
same,"viability, T/C","second compound 0.1 µM, first compound 0.00316 µM",104%
same,"viability, T/C","second compound 0.1 µM, first compound 0.01 µM",109%
same,"viability, T/C",[1],68.1%
same,"viability, T/C",[2],19.6%
same,"viability, T/C","second compound 0.316 µM, first compound 0.000316 µM",101%
same,"viability, T/C","second compound 0.316 µM, first compound 0.001 µM",99.4%
same,"viability, T/C","second compound 0.316 µM, first compound 0.00316 µM",107%
same,"viability, T/C","second compound 0.316 µM, first compound 0.01 µM",103%
same,"viability, T/C",[3],59.8%
same,"viability, T/C",[4],16.6%
same,"viability, T/C","second compound 1 µM, first compound 0.000316 µM",102%
same,"viability, T/C","second compound 1 µM, first compound 0.001 µM",101%
same,"viability, T/C","second compound 1 µM, first compound 0.00316 µM",106%
same,"viability, T/C","second compound 1 µM, first compound 0.01 µM",103%
same,"viability, T/C",[5],57.3%
same,"viability, T/C",[6],15.9%
same,"viability, T/C","second compound 3.16 µM, first compound 0.000316 µM",96.4%
same,"viability, T/C","second compound 3.16 µM, first compound 0.001 µM",101%
same,"viability, T/C","second compound 3.16 µM, first compound 0.00316 µM",93.4%
same,"viability, T/C","second compound 3.16 µM, first compound 0.01 µM",92.3%
same,"viability, T/C",[7],49.1%
same,"viability, T/C",[8],18.7%
same,"viability, T/C","second compound 10 µM, first compound 0.000316 µM",90.7%
same,"viability, T/C","second compound 10 µM, first compound 0.001 µM",89.5%
same,"viability, T/C","second compound 10 µM, first compound 0.00316 µM",86.4%
same,"viability, T/C","second compound 10 µM, first compound 0.01 µM",83.6%
same,"viability, T/C",[9],44.6%
same,"viability, T/C",[10],16.7%
CCc1c2c(nc3ccc(O)cc13)-c1cc3c(c(=O)n1C2)COC(=O)[C@]3(O)CC + Cc1ccccc1N=Nc1ccc(NC(=O)c2ccnn2C)c(C)c1,IC50,second compound 0.1 µM,6.1 nM
same,IC50,second compound 0.316 µM,6.33 nM
same,IC50,second compound 1 µM,6.39 nM
same,IC50,second compound 3.16 µM,6.1 nM
same,IC50,second compound 10 µM,5.18 nM
same,"viability, T/C","second compound 0.1 µM, first compound 0.000949 µM",106%
same,"viability, T/C","second compound 0.1 µM, first compound 0.003 µM",96.2%
same,"viability, T/C","second compound 0.1 µM, first compound 0.00949 µM",21.1%
same,"viability, T/C","second compound 0.1 µM, first compound 0.03 µM",9.38%
same,"viability, T/C","second compound 0.1 µM, first compound 0.0949 µM",3.43%
same,"viability, T/C","second compound 0.1 µM, first compound 0.3 µM",4.01%
same,"viability, T/C","second compound 0.316 µM, first compound 0.000949 µM",107%
same,"viability, T/C","second compound 0.316 µM, first compound 0.003 µM",106%
same,"viability, T/C","second compound 0.316 µM, first compound 0.00949 µM",19.7%
same,"viability, T/C","second compound 0.316 µM, first compound 0.03 µM",9.77%
same,"viability, T/C","second compound 0.316 µM, first compound 0.0949 µM",4.26%
same,"viability, T/C","second compound 0.316 µM, first compound 0.3 µM",3.54%
same,"viability, T/C","second compound 1 µM, first compound 0.000949 µM",101%
same,"viability, T/C","second compound 1 µM, first compound 0.003 µM",102%
same,"viability, T/C","second compound 1 µM, first compound 0.00949 µM",22.9%
same,"viability, T/C","second compound 1 µM, first compound 0.03 µM",10.2%
same,"viability, T/C","second compound 1 µM, first compound 0.0949 µM",4.47%
same,"viability, T/C","second compound 1 µM, first compound 0.3 µM",2.91%
same,"viability, T/C","second compound 3.16 µM, first compound 0.000949 µM",98.1%
same,"viability, T/C","second compound 3.16 µM, first compound 0.003 µM",95.6%
same,"viability, T/C","second compound 3.16 µM, first compound 0.00949 µM",21.6%
same,"viability, T/C","second compound 3.16 µM, first compound 0.03 µM",8.98%
same,"viability, T/C","second compound 3.16 µM, first compound 0.0949 µM",4.32%
same,"viability, T/C","second compound 3.16 µM, first compound 0.3 µM",3.54%
same,"viability, T/C","second compound 10 µM, first compound 0.000949 µM",89.7%
same,"viability, T/C","second compound 10 µM, first compound 0.003 µM",78.8%
same,"viability, T/C","second compound 10 µM, first compound 0.00949 µM",18.1%
same,"viability, T/C","second compound 10 µM, first compound 0.03 µM",8.91%
same,"viability, T/C","second compound 10 µM, first compound 0.0949 µM",4.41%
same,"viability, T/C","second compound 10 µM, first compound 0.3 µM",3.24%
Nc1ccccc1NC(=O)c1ccc(CNC(=O)OCc2cccnc2)cc1 + Cc1ccccc1N=Nc1ccc(NC(=O)c2ccnn2C)c(C)c1,IC50,second compound 0.1 µM,7060 nM
same,IC50,second compound 0.316 µM,7470 nM
same,IC50,second compound 1 µM,7200 nM
same,IC50,second compound 3.16 µM,6610 nM
same,IC50,second compound 10 µM,5760 nM
same,"viability, T/C",[1],104%
same,"viability, T/C",[2],99.1%
same,"viability, T/C",[11],120%
same,"viability, T/C",[12],103%
same,"viability, T/C",[13],94.2%
same,"viability, T/C",[14],30.8%
same,"viability, T/C",[3],114%
same,"viability, T/C",[4],103%
same,"viability, T/C",[15],106%
same,"viability, T/C",[16],115%
same,"viability, T/C",[17],105%
same,"viability, T/C",[18],31.1%
same,"viability, T/C",[5],105%
same,"viability, T/C",[6],111%
same,"viability, T/C",[19],105%
same,"viability, T/C",[20],104%
same,"viability, T/C",[21],94.3%
same,"viability, T/C",[22],32%
same,"viability, T/C",[7],88.1%
same,"viability, T/C",[8],90.6%
same,"viability, T/C",[23],92.2%
same,"viability, T/C",[24],80.8%
same,"viability, T/C",[25],91.4%
same,"viability, T/C",[26],28.2%
same,"viability, T/C",[9],88.5%
same,"viability, T/C",[10],91.7%
same,"viability, T/C",[27],99.2%
same,"viability, T/C",[28],91.2%
same,"viability, T/C",[29],75.8%
same,"viability, T/C",[30],26.3%
Nc1ccn(C2OC(CO)C(O)C2(F)F)c(=O)n1 (stereo not given) + Cc1ccccc1N=Nc1ccc(NC(=O)c2ccnn2C)c(C)c1,IC50,second compound 0.1 µM,< 31.6 nM
same,IC50,second compound 0.316 µM,< 31.6 nM
same,IC50,second compound 1 µM,< 31.6 nM
same,IC50,second compound 3.16 µM,< 31.6 nM
same,IC50,second compound 10 µM,< 31.6 nM
same,"viability, T/C",[1],8.08%
same,"viability, T/C",[2],6.67%
same,"viability, T/C",[11],7.73%
same,"viability, T/C",[12],5.06%
same,"viability, T/C",[13],7.17%
same,"viability, T/C",[14],6.66%
same,"viability, T/C",[3],7.8%
same,"viability, T/C",[4],6.77%
same,"viability, T/C",[15],5.95%
same,"viability, T/C",[16],8.69%
same,"viability, T/C",[17],7.54%
same,"viability, T/C",[18],7.11%
same,"viability, T/C",[5],6.79%
same,"viability, T/C",[6],6.35%
same,"viability, T/C",[19],7.35%
same,"viability, T/C",[20],5.82%
same,"viability, T/C",[21],7.07%
same,"viability, T/C",[22],6.7%
same,"viability, T/C",[7],7.91%
same,"viability, T/C",[8],5.76%
same,"viability, T/C",[23],6.46%
same,"viability, T/C",[24],4.78%
same,"viability, T/C",[25],6.9%
same,"viability, T/C",[26],7.29%
same,"viability, T/C",[9],9.54%
same,"viability, T/C",[10],8.5%
same,"viability, T/C",[27],7.09%
same,"viability, T/C",[28],6.47%
same,"viability, T/C",[29],5.53%
same,"viability, T/C",[30],6.11%
O=C(c1cc(Cc2n[nH]c(=O)c3ccccc23)ccc1F)N1CCN(C(=O)C2CC2)CC1 + Cc1ccccc1N=Nc1ccc(NC(=O)c2ccnn2C)c(C)c1,IC50,second compound 0.1 µM,> 10000 nM
same,IC50,second compound 0.316 µM,> 10000 nM
same,IC50,second compound 1 µM,> 10000 nM
same,IC50,second compound 3.16 µM,> 10000 nM
same,IC50,second compound 10 µM,> 10000 nM
same,"viability, T/C",[1],101%
same,"viability, T/C",[2],105%
same,"viability, T/C",[11],99.8%
same,"viability, T/C",[12],104%
same,"viability, T/C",[13],97%
same,"viability, T/C",[14],104%
same,"viability, T/C",[3],97.1%
same,"viability, T/C",[4],101%
same,"viability, T/C",[15],107%
same,"viability, T/C",[16],106%
same,"viability, T/C",[17],107%
same,"viability, T/C",[18],101%
same,"viability, T/C",[5],100%
same,"viability, T/C",[6],101%
same,"viability, T/C",[19],104%
same,"viability, T/C",[20],97.1%
same,"viability, T/C",[21],107%
same,"viability, T/C",[22],99.1%
same,"viability, T/C",[7],94.6%
same,"viability, T/C",[8],97.9%
same,"viability, T/C",[23],99.5%
same,"viability, T/C",[24],97.3%
same,"viability, T/C",[25],106%
same,"viability, T/C",[26],94.4%
same,"viability, T/C",[9],98.2%
same,"viability, T/C",[10],93.8%
same,"viability, T/C",[27],102%
same,"viability, T/C",[28],94.9%
same,"viability, T/C",[29],88.1%
same,"viability, T/C",[30],87.5%
